Results taken from article PMC8157947, “Peptidic boronic acids are potent cell-permeable inhibitors of the malaria parasite egress serine protease SUB1” (Proceedings of the National Academy of Sciences of the …, 2021).

Experiments:
[1] = target: T1, α-chymotrypsin (Bos taurus, UniProt P00766); assay: α-Chymotrypsin inhibition assay (N-Suc-LLVY-AMC cleavage); type: biochemical; conditions: bovine
T1 construct: purchased Sigma-Aldrich C3142; host or cells: bovine pancreas
Method: Analytical data are in accor dance with those reported in the literature12.
(+)-Pinanediol (1- am inobenzyl)boronate h ydrochloride 9g
A previousl y reported m ethod was used for the first step of the s ynthesis3.
Phenylm agnesium brom ide 0.7 M (3.1 m L, 2.15 mm ol, 1.2 equiv) was added dropwise at −78°C to a solution of (+)-pinanediol dichloromethyl boronate 24 (470 m g, 1.79 mmol, 1.0 equiv) in anh ydrous dieth yl ether (10 m L). Af ter 15 m in ZnCl2 1 M (1.8 m L, 1.8 mm ol, 1.0 equiv) was slowl y added at this t em perature. T he reaction m ixture was allowed to warm up to room tem perature over 2 hours. The inorganic precipitate was filtered off and the solvents were rem oved in vacuo. The residue was dissolved in pentane, washed with water and dried over Na2SO4. Rem oval of the solvent gives a product which was forwarded to the next step without purification. […]
Assays f or inh ib ition of tr yp s in activity (T PC K trea ted, f rom bovine pa ncreas; Sigm a-Aldrich T 1426) were based on cleavage of the fluorogenic peptide substrate Boc -QAR-AMC (Sigma- Aldrich B4153). which contains the fluorescent 7- am ino-4-m ethyl c oum arin (AMC) group. […] Cleavage of this bond results in release of AMC and i ncreased fluorescence. […]

[2] = tested on: P. falciparum schizonts; assay: Washout egress assay, hemoglobin release into culture supernatants; type: cell-based; conditions: Plasmodium falciparum; 4 h pretreatment, then washout
Method: (§1) Short-term egress, invasion, and washout assays were performed essentially as described previously ([27], [28], [42]). Briefly, highly synchronous mature Percoll-enriched schizonts with or without added fresh RBCs (∼5% parasitaemia final) were incubated with compounds under test or vehicle only (DMSO, 1% vol/vol). For washout assays, schizonts were treated with C2 or various concentrations of inhibitor 3j for 1 to 4 h, then washed extensively (at least four times) prior to addition to fresh RBCs where required. After incubation at 37 °C for just 1 to 4 h (or overnight for invasion assays) to allow schizont rupture, cells were pelleted. Clarified culture supernatants were assessed for extent of hemoglobin release (a measure of schizont rupture) by absorption spectroscopy at 415 nm as described previously ([28]) or analyzed by Western blot using antibodies against SERA5 ([7], [11]). To quantify generation of new rings, samples of the cultures were fixed with 4% paraformaldehyde/0.02% glutaraldehyde and stained with SYBR Green I (Life Technologies) and then analyzed by flow cytometry on a BD FACSVerse using BD FACSuite software. Data were analyzed using FlowJo software. All cultures were also routinely analyzed by microscopic examination of Giemsa-stained thin films to visually assess parasite morphology.

[3] = tested on: PfSUB1-mediated proteolytic processing of SERA5; assay: Western blot of SERA5 processing after washout; type: cell-based, Plasmodium falciparum; conditions: 4 h pretreatment then washout
Source text: To seek unambiguous confirmation that PfSUB1 is the intracellular target of compound 3j, we examined the effects of the compound on the PfSUB1-mediated proteolytic processing of the established endogenous PfSUB1 substrate SERA5, an abundant parasite PV protein that only becomes accessible to cleavage upon discharge of PfSUB1 into the PV in the minutes leading up to egress and is then released in a processed form into culture supernatants ([6], [11], [12]). […] It was concluded that compound 3j prevents egress and parasite proliferation through direct inhibition of intracellular PfSUB1.
Short-term egress, invasion, and washout assays were performed essentially as described previously ([27], [28], [42]). […] Clarified culture supernatants were assessed for extent of hemoglobin release (a measure of schizont rupture) by absorption spectroscopy at 415 nm as described previously ([28]) or analyzed by Western blot using antibodies against SERA5 ([7], [11]). To quantify generation of new rings, samples of the cultures were fixed with 4% paraformaldehyde/0.02% glutaraldehyde and stained with SYBR Green I (Life Technologies) and then analyzed by flow cytometry on a BD FACSVerse using BD FACSuite software. Data were analyzed using FlowJo software. All cultures were also routinely analyzed by microscopic examination of Giemsa-stained thin films to visually assess parasite morphology.

[4] = tested on: P. falciparum schizonts; assay: Ring formation after pretreatment of schizonts and washout; type: cell-based, Plasmodium falciparum; conditions: pretreated schizonts washed, fresh RBCs, assessed at 24 h; 3j 10 μM, C2 1 μM
Method: as §1

For `CC(=O)NC(C(=O)NC(C(=O)NCC(=O)NC(C)B(O)O)C(C)C)C1CCCC1` (stereo not shown) [3j], the IC50 [1] was over 200000 nM, the EC50 [2] was about 2000 nM and the SERA5 proteolytic processing [3] was “prevented proteolytic processing and release of SERA5”. For the same compound, the “ring production after washout” value [4] was “No rings were produced”.
